The source of these data is US4593047A, “Process for the preparation of 3-trifluoromethyl-and 2,5-dimethyl-4'-hdyroxy-α-ethyl-benzhydrol, and pharmaceutical compositions containing them” (Richter Gedeon Vegyeszeti Cyar RT, priority 1982, dated 1986).

The conditions of data set [1]: in vivo; cited from earlier work.
Data set [2] can be described thus: Ethanolic narcosis period as a function of the pretreatment period (Table 2). Format: in vivo, Hann.-Wistar rats. To be noted: 40.0 mg./kg. oral, n=10. Here is the method:
(§1) The effect of the compounds according to the invention on ethanolic narcosis period was tested on Hann.-Wistar rats of both sexes, each weighing 160 to 180 g. The animals were fasted for 16 hours prior to treatment and tests were performed on groups of 10. The animals were treated with various doses of the test compounds orally. One hour after treatment the rats were administered a […]. dose of ethanol intraperitoneally, and their narcosis period was measured from the elapse of the righting reflex until a spontaneous correction of the body position. The mean value of the narcosis period and the percentage difference related to the control were calculated.
There was examined the effect of a 40.0 mg./kg. dose of the above test compound on the ethanolic narcosis period as a function of the pretreatment-period, following the test procedure described above.

Data set [3] in a line: Ethanolic narcosis period test (Table 1, 1 hour oral pretreatment). Format: in vivo, Hann.-Wistar rats. Conditions: 1 hour before ethanol i.p., n=10, control = 100 ± 7.9. As for the experimental part:
as §1, with “calculated. The results are given in Table 1. x±S.E.=mean value±standard error n=number of animals The control group was treated with placebo and a […]. dose of ethanol. Narcosis period of the control: 87.4±6.91 (x±S.E.) min.” for “calculated.”

The nature of data set [4]: Acute toxicity, single oral dose, 14 days observation. It is filed as in vivo. As for the experimental part:
The acute toxicity of the compound A was determined on Hann.-Wistar rats of both sexes, each weighing 160 to 180 g. in groups of 10. The animals were administered a single 2000 mg./kg. oral dose of the test compound, and then observed for 14 days.

Data set [5] deals with enzyme system of liver. Conditions: cited from earlier work.
For data set [6] the following is noted: in vivo; cited from earlier work. The source holds these as a separate data set.
The conditions of data set [7]: cited from earlier work.

Some results are limits rather than exact numbers.

`CC(N)Cc1ccccc1` (stereo not shown) [amphetamine]: in data set [1], the “Motoric incoordination (ataxia)” value is “prolong the motoric incoordination (ataxia)” and the “Narcotizing effect of alcohol” value is recorded as “decrease the narcotizing effect of alcohol”.
In the case of `CCC(O)(c1ccc(O)cc1)c1cccc(C(F)(F)F)c1` (stereo not drawn) [A, 3-trifluoromethyl-4'-hydroxy-α-ethyl-benzhydrol], the “Narcosis period, treated” value is given as 54.1 ± 3.49 in data set [2] (pretreatment 0.5 hours, control 87.2 ± 6.23); 45.1 ± 2.30 in data set [2] (pretreatment 1.0 hours, control 85.1 ± 4.91); 29.9 ± 5.08 in data set [2] (pretreatment 2.0 hours, control 85.5 ± 9.97); 75.1 ± 4.51 in data set [2] (pretreatment 3.0 hours, control 83.4 ± 8.46). For the same compound, the “Narcosis period, % difference from the control” value was -38% in data set [2] (pretreatment 0.5 hours), -47% in data set [2] (pretreatment 1.0 hours), -65% in data set [2] (pretreatment 2.0 hours) and -10% in data set [2] (pretreatment 3.0 hours). The results for the “Ethanolic narcosis period (Control ± S.E. %)” value in data set [3] (40.0 mg./kg. oral) and in data set [3] (80.0 mg./kg. oral) were 53 ± 5.8% and 62 ± 5.1%, respectively. For the same compound, the Toxicity entry in data set [4] (oral, single dose) is recorded as “toxicity is low”. The same compound came in with an LD50 at 336 h in data set [4] (rat, in vivo, oral, single dose, 14 days observation) greater than 2000 mg/kg. Moreover, the mortality at 336 h in data set [4] (rat, in vivo, single 2000 mg./kg. oral dose, 14 days observation, read-out: Animals perished) came out at 40%.
As to `CCC(O)(c1ccccc1)c1cccc(C(F)(F)F)c1` (stereo not drawn) [3-trifluoromethyl-α-ethyl-benzhydrol], the “Inducing effect on the enzyme system of liver” value in data set [5] is “has an inducing effect on the enzyme system of liver”.
In the case of `N[C@@H](CS)C(=O)O` [L-cysteine, reference compound], in data set [6], the Alcoholic intoxication entry is “shortened” and the Alcoholic narcosis result is “shortened”. Moreover, the “Ethanolic narcosis period (Control ± S.E. %)” value in data set [3] (500.0 mg./kg. oral) came out at 63 ± 4.2%. Besides, the “Ethanolic narcosis period (Control ± S.E. %)” value in data set [3] (1000.0 mg./kg. oral) amounted to 66 ± 5.9%.
Turning to `CC(N)(Cc1ccc(O)cc1)C(=O)O` (stereo not drawn) [α-Methyl-p-tyrosine], the “Effect on locomotoric hyperactivity” value in data set [7] (mice, dose range in which spontaneous locomotor activity is decreased) was “normalizing effect”. In addition, the Spontaneous locomotor activity result in data set [7] (same dose range as normalizing effect on hyperactivity) is “decreases the spontaneous locomotor activity”.
Take `Cn1c(=O)c2c(ncn2C)n(C)c1=O` [caffeine]: in data set [1], the “Motoric incoordination (ataxia)” value is recorded as “prolong the motoric incoordination (ataxia)” and the “Narcotizing effect of alcohol” value is reported as “decrease the narcotizing effect of alcohol”.
For `CCC(O)(c1ccccc1)c1cc(C)ccc1C` (stereo not drawn) [2,5-dimethyl-α-ethyl-benzhydrol], in data set [5], the “Inducing effect on the enzyme system of liver” value was “shows a similar activity”.
